The record followed here is patent US11149031B2, “Substituted N-(3-fluoropropyl)-pyrrolidine compounds, processes for their preparation and therapeutic uses thereof” (SANOFI, priority 2016, dated 2021).

In assay [1] the test system is MCF7 cells expressing mutant estrogen receptor Asp 538 Gly. The assay can be described thus: Test B: cell proliferation/viability assay (CellTiter-Glo) on MCF7 Asp 538 Gly mutant. The settings on record: MCF7 cells expressing ER Asp 538 Gly mutant, 7 days of compound exposure, read-out: proliferation MCF7 D538G IC50. The assay is classed as cell-based. From the text:
(§1) Test B: Cell Proliferation/Viability Assay on MCF7 (Breast Tumor Cells) WT and Mutants Cell Lines
(§2) Test B involves measuring the in vitro proliferation activity of the compounds of the invention by analyzing the viability of the tumor cells.
(§3) The measurements of the viability were made using a breast cancer cell viability assay as described hereunder.
(§4) MCF7 cells expressing (and dependent) on mutants estrogen receptor Tyr 537 Ser or Asp 538 Gly were generated by transfection of MCF7 parental cells (ATCC) with expression vectors coding for different mutants of estrogen receptor Tyr 537 Ser or Asp 538 Gly. The cells were first selected by antibiotic (related to vector expression) and then selected for their growth dependence on estrogen receptor based on their ability to grow in vitro in absence of estradiol (parental cell line die in absence of estradiol).
(§5) MCF7 cells (ATCC) or MCF7 cells expressing (and dependent) on mutants estrogen receptor Tyr 537 Ser or Asp 538 Gly were seeded in 384 wells microplate at concentration of >999 cells/30 μL per well in red phenol free MEM medium containing 5% charcoal dextran striped FBS. The following day, 9 points serial 1:5 dilution of each compound were added to the cells in 20 μL at final concentrations ranging from 3-0.000001 μM. After 7 days of compound exposure, 50 μL of CellTiter-Glo (promega) was added to the cells and relative luminescence arbitrary units (RLUs) were determined in luminescence plate reader (Envision device). CellTiter-Glo was added to 50 μL medium without cells to determine the background signal.
(§6) The percent of viability of each sample was determined as follows: (RLU sample−RLU background/RLU untreated−RLU background)*100=% viability.

Assay [2] has as its target His6-ERα298-554 WT (ERα ligand-binding domain) (Homo sapiens (Human), UniProt P03372). Nature of the assay: Test A: biochemical antagonist activity, LanthaScreen TR-FRET ERα coactivator assay, WT. Particulars: read-out: Antagonism WT IC50. A digest of the protocol: (§7)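 His6-ERα LBD (0.5 nM) with 0.5 nM Tb-anti-His6 antibody, 250 nM PGC1a peptide and 3 nM (or 10 nM) estradiol in 100 mM potassium phosphate pH 7.4 with 5 mM DTT, incubated overnight at room temperature with compound.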

For assay [3], the target named is His6-ERα298-554 Y537S mutant (ERα ligand-binding domain) (Homo sapiens (Human), UniProt P03372, Y537S). The assay can be described thus: Test A: biochemical antagonist activity, LanthaScreen TR-FRET ERα coactivator assay, Y537S mutant. Particulars: read-out: Antagonism Y537S IC50. The gist of the method:
as §7

For assay [4], the target named is His6-ERα298-554 D538G mutant (ERα ligand-binding domain) (Homo sapiens (Human), UniProt P03372, D538G). Nature of the assay: Test A: biochemical antagonist activity, LanthaScreen TR-FRET ERα coactivator assay, D538G mutant. Particulars: read-out: Antagonism D538G IC50. The gist of the method: as §7
His6-ERα298-554 D538G mutant (ERα ligand-binding domain), sequence (P03372 298-554 D538G): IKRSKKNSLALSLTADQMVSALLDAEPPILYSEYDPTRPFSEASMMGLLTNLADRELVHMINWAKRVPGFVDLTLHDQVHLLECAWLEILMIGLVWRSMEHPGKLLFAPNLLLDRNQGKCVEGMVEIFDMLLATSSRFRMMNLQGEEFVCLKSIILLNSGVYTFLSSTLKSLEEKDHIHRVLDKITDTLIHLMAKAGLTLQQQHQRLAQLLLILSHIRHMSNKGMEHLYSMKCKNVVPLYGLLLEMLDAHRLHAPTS
Assay [5] addresses ERα in MCF7 cells (Homo sapiens (Human), UniProt P03372). Nature of the assay: Test C: estrogen receptor degradation activity, ERα in cell western assay in MCF7 cells. The assay is classed as cell-based. The settings on record: for DC50: 4 hours post compound addition, ERα in cell western, read-out: Degradation IC50; for % Degradation at 3 μM: 4 hours, relative to fulvestrant. The gist of the method: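 MCF7 cells in phenol-red-free medium with 5% charcoal-stripped FBS received compound (9-point 1:5, 3-0.000018 μM) for 4 h, then were fixed. ERα immunostained (Alexa 488) and normalised to DNA (Syto-64), read as integrated fluorescence on an Acumen scanner.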

The test system of assay [6] is MCF7 cells (breast tumor cells) WT. The assay can be described thus: Test B: cell proliferation/viability assay (CellTiter-Glo) on MCF7 WT. The assay is classed as cell-based. Particulars: 7 days of compound exposure. On the procedure: as §1, §2
The measurements of the viability were made using a breast cancer cell viability assay as described hereunder. […]
as §5, §6

In assay [7] the test system is MCF7 cells expressing mutant estrogen receptor Tyr 537 Ser. Nature of the assay: Test B: cell proliferation/viability assay (CellTiter-Glo) on MCF7 Tyr 537 Ser mutant. The settings on record: MCF7 cells expressing ER Tyr 537 Ser mutant, 7 days of compound exposure, read-out: proliferation MCF7 Y537S IC50. The assay is classed as cell-based.
Description: as §1, §2, §3, §4, §5, §6

[8] abbreviates: asterisk (*): protocol using 10 nM estradiol.

Structures are written as SMILES. Where two headings read alike, the source gives them in different places. A value given as a limit tells only on which side of the number the result lay.

His6-ERα298-554 Y537S mutant (ERα ligand-binding domain), sequence (P03372 298-554 Y537S): as the sequence (P03372 298-554 D538G) above, with Y240S, G241D counted along it
His6-ERα298-554 WT (ERα ligand-binding domain), sequence (P03372 298-554): as the sequence (P03372 298-554 D538G) above, with G241D counted along it
ERα in MCF7 cells, sequence (P03372 whole entry): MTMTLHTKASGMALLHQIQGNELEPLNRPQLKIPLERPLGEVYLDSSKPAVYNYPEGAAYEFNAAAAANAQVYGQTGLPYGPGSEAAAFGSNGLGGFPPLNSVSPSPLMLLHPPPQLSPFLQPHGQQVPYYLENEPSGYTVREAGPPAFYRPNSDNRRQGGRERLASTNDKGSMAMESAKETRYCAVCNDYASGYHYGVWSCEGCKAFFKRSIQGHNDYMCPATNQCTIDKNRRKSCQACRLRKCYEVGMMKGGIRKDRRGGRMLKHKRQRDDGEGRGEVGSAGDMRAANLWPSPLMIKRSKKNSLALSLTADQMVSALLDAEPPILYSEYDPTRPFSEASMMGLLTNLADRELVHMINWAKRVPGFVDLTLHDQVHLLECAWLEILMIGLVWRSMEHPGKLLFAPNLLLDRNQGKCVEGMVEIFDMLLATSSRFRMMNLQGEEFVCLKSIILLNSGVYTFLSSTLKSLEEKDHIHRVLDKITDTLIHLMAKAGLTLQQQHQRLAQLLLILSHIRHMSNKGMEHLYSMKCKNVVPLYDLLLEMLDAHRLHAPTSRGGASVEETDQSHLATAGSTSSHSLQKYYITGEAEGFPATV

Consider `CC1Cc2c([nH]c3ccccc23)C(c2c(F)cc(O[C@H]3CCN(CCCF)C3)cc2F)N1CC(C)(C)F` (single isomer, unassigned) [Example 257], for which the IC50 in assay [1] was 85 nM; in assay [2] (setting [8]), 3310 nM; in assay [3] (setting [8]) it was > 4000 nM; in assay [4] (setting [8]), > 4000 nM; in assay [6], 18 nM; in assay [7], 272 nM. Further, the DC50 in assay [5] is 37 nM. The “% Degradation at 3 μM” value in assay [5] was 87%.
Regarding `Oc1ccc2c(c1)C(c1ccc(O[C@H]3CCN(CCCF)C3)cc1)=C(c1ccc(OC(F)(F)F)cc1Cl)CC2` [Example 7, 7-[2-chloro-4-(trifluoromethoxy)phenyl]-8-[4-[(3S)-1-(3-fluoropropyl)pyrrolidin-3-yl]oxyphenyl]-5,6-dihydronaphthalen-2-ol], the IC50 in assay [1] (Homo sapiens, MCF7, 168 h) is 18 nM; in assay [2] (setting [8]) it was 1470 nM; in assay [3] (setting [8]), > 4000 nM; in assay [4] (setting [8]) it was > 4000 nM; in assay [6] (Homo sapiens, MCF7, 168 h), 13 nM; in assay [7] (Homo sapiens, MCF7, 168 h), > 999 nM. Further, in assay [5], the DC50 is 22 nM. The “% Degradation at 3 μM” value in assay [5] came to 82%.
Take `Oc1ccc2c(c1)C(c1ccc(O[C@H]3CCN(CCCF)C3)cc1)=C(c1ccc(OC(F)(F)F)cc1)CC2` [Example 8, 8-[4-[(3S)-1-(3-fluoropropyl)pyrrolidin-3-yl]oxyphenyl]-7-[4-(trifluoromethoxy)phenyl]-5,6-dihydronaphthalen-2-ol]: the IC50 in assay [1] (Homo sapiens, MCF7, 168 h) was > 999 nM; in assay [2] (setting [8]), 1390 nM; in assay [3] (setting [8]), > 4000 nM; in assay [4] (setting [8]), > 4000 nM; in assay [6] (Homo sapiens, MCF7, 168 h), > 999 nM; in assay [7] (Homo sapiens, MCF7, 168 h) it was > 999 nM. For the same compound, the DC50 in assay [5] came to 25 nM. Besides, the “% Degradation at 3 μM” value in assay [5] was determined as 84%.
With `Oc1ccc2c(c1)C(c1ccc(O[C@H]3CCN(CCCF)C3)cc1)=C(c1ccc(SC(F)(F)F)cc1)CC2` [Example 9, 8-[4-[(3S)-1-(3-fluoropropyl)pyrrolidin-3-yl]oxyphenyl]-7-[4-(trifluoromethylsulfanyl)phenyl]-5,6-dihydronaphthalen-2-ol], the IC50 in assay [1] (Homo sapiens, MCF7, 168 h) is 47 nM; in assay [2] (setting [8]), 2290 nM; in assay [3] (setting [8]) it was > 4000 nM; in assay [4] (setting [8]), > 4000 nM; in assay [6] (Homo sapiens, MCF7, 168 h), 44 nM; in assay [7] (Homo sapiens, MCF7, 168 h) it was > 999 nM. For the same compound, in assay [5], the DC50 came to 28 nM. Besides, the “% Degradation at 3 μM” value in assay [5] is given as 79%.
Take `Oc1ccc2c(c1)C(c1ccc(O[C@H]3CCN(CCCF)C3)cc1)=C(c1ccc(OC(F)(F)F)cc1F)CC2` [Example 10, 8-[4-[(3S)-1-(3-fluoropropyl)pyrrolidin-3-yl]oxyphenyl]-7-[2-fluoro-4-(trifluoromethoxy)phenyl]-5,6-dihydronaphthalen-2-ol]: the IC50 was 29 nM in assay [1] (Homo sapiens, MCF7, 168 h); 1270 nM in assay [2] (setting [8]); > 4000 nM in assay [3] (setting [8]); > 4000 nM in assay [4] (setting [8]); 85 nM in assay [6] (Homo sapiens, MCF7, 168 h); > 999 nM in assay [7] (Homo sapiens, MCF7, 168 h). Besides, the DC50 in assay [5] is 15 nM. Also, in assay [5], the “% Degradation at 3 μM” value is 78%.
Turning to `CC(C)(C)c1ccc(C2=C(c3ccc(O[C@H]4CCN(CCCF)C4)cc3)c3cc(O)ccc3CC2)cc1` [Example 11, 7-(4-tert-butylphenyl)-8-[4-[(3S)-1-(3-fluoropropyl)pyrrolidin-3-yl]oxyphenyl]-5,6-dihydronaphthalen-2-ol], the IC50 was 162 nM in assay [1] (Homo sapiens, MCF7, 168 h); > 4000 nM in assay [2] (setting [8]); > 4000 nM in assay [3] (setting [8]); > 4000 nM in assay [4] (setting [8]); 44 nM in assay [6] (Homo sapiens, MCF7, 168 h); > 999 nM in assay [7] (Homo sapiens, MCF7, 168 h). The DC50 in assay [5] is 49 nM. Moreover, the “% Degradation at 3 μM” value in assay [5] is given as 80%.
Turning to `Cc1ccc(C2=C(c3ccc(O[C@H]4CCN(CCCF)C4)cc3)c3ccc(O)cc3SC2)c(F)c1` [Example 16, 3-(2-fluoro-4-methyl-phenyl)-4-[4-[(3S)-1-(3-fluoropropyl)pyrrolidin-3-yl]oxyphenyl]-2H-thiochromen-7-ol], the IC50 in assay [1] (Homo sapiens, MCF7, 168 h) amounted to 2 nM; in assay [2] (protocol with 3 nM estradiol) it was 4 nM; in assay [3] (protocol with 3 nM estradiol) it was 6 nM; in assay [4] (protocol with 3 nM estradiol), 16 nM; in assay [6] (Homo sapiens, MCF7, 168 h), 0.9 nM; in assay [7] (Homo sapiens, MCF7, 168 h), 10 nM. Moreover, the DC50 in assay [5] was 1 nM. Also, the “% Degradation at 3 μM” value in assay [5] is recorded as 90%.
Regarding `Cc1cc(C2=C(c3ccc(O[C@H]4CCN(CCCF)C4)cc3)c3ccc(O)cc3SC2)ccc1Cl` [Example 17, 3-(4-chloro-3-methyl-phenyl)-4-[4-[(3S)-1-(3-fluoropropyl)pyrrolidin-3-yl]oxyphenyl]-2H-thiochromen-7-ol], the IC50 in assay [1] (Homo sapiens, MCF7, 168 h) turned out to be 1 nM; in assay [2] (protocol with 3 nM estradiol), 7 nM; in assay [3] (protocol with 3 nM estradiol), 14 nM; in assay [4] (protocol with 3 nM estradiol), 39 nM; in assay [6] (Homo sapiens, MCF7, 168 h), 0.4 nM; in assay [7] (Homo sapiens, MCF7, 168 h), 3 nM. Further, in assay [5], the DC50 came to 2 nM. Besides, the “% Degradation at 3 μM” value in assay [5] stood at 87%.
Turning to `Oc1ccc2c(c1)SCC(c1ccc(Cl)cc1F)=C2c1ccc(O[C@H]2CCN(CCCF)C2)cc1` [Example 18, 3-(4-chloro-2-fluoro-phenyl)-4-[4-[(3S)-1-(3-fluoropropyl)pyrrolidin-3-yl]oxyphenyl]-2H-thiochromen-7-ol], the IC50 in assay [1] (Homo sapiens, MCF7, 168 h) amounted to 1 nM; in assay [2] (protocol with 3 nM estradiol), 9 nM; in assay [3] (protocol with 3 nM estradiol), 15 nM; in assay [4] (protocol with 3 nM estradiol), 39 nM; in assay [6] (Homo sapiens, MCF7, 168 h) it was 0.5 nM; in assay [7] (Homo sapiens, MCF7, 168 h) it was 7 nM. The DC50 in assay [5] worked out at 0.6 nM. Besides, the “% Degradation at 3 μM” value in assay [5] came out at 90%.
As for `COc1ccc(C2=C(c3ccc(O[C@H]4CCN(CCCF)C4)cc3)c3ccc(O)cc3SC2)cc1F` [Example 23, 3-(3-fluoro-4-methoxy-phenyl)-4-[4-[(3S)-1-(3-fluoropropyl)pyrrolidin-3-yl]oxyphenyl]-2H-thiochromen-7-ol], the IC50 in assay [1] (Homo sapiens, MCF7, 168 h) is 14 nM; in assay [2] (setting [8]) it was 50 nM; in assay [3] (setting [8]), 678 nM; in assay [4] (setting [8]), 803 nM; in assay [6] (Homo sapiens, MCF7, 168 h), 7 nM; in assay [7] (Homo sapiens, MCF7, 168 h), > 999 nM. Also, the DC50 in assay [5] was 0.3 nM. The “% Degradation at 3 μM” value in assay [5] is given as 93%.
`COc1ccc(C2=C(c3ccc(O[C@H]4CCN(CCCF)C4)cc3)c3ccc(O)cc3SC2)c(F)c1` [Example 24, 3-(2-fluoro-4-methoxy-phenyl)-4-[4-[(3S)-1-(3-fluoropropyl)pyrrolidin-3-yl]oxyphenyl]-2H-thiochromen-7-ol]: the IC50 in assay [1] (Homo sapiens, MCF7, 168 h) is 0.9 nM; in assay [2] (setting [8]), 5 nM; in assay [3] (setting [8]), 44 nM; in assay [4] (setting [8]) it was 80 nM; in assay [6] (Homo sapiens, MCF7, 168 h) it was 0.3 nM; in assay [7] (Homo sapiens, MCF7, 168 h) it was 6 nM. For the same compound, the DC50 in assay [5] came out at 0.2 nM. In addition, in assay [5], the “% Degradation at 3 μM” value was found to be 91%.
Consider `Cc1ccc(C2=C(c3ccc(O[C@H]4CCN(CCCF)C4)cc3)c3ccc(C(=O)O)cc3SC2)c(F)c1` [Example 25, 3-(2-fluoro-4-methyl-phenyl)-4-[4-[(3S)-1-(3-fluoropropyl)pyrrolidin-3-yl]oxyphenyl]-2H-thiochromene-7-carboxylic acid], for which the IC50 in assay [1] (Homo sapiens, MCF7, 168 h) was 31 nM; in assay [2] (setting [8]), 1420 nM; in assay [3] (setting [8]), > 4000 nM; in assay [4] (setting [8]), > 4000 nM; in assay [6] (Homo sapiens, MCF7, 168 h), 16 nM; in assay [7] (Homo sapiens, MCF7, 168 h) it was 160 nM. Also, in assay [5], the DC50 is 19 nM. Further, in assay [5], the “% Degradation at 3 μM” value is 93%.
